Data reported in publication PMC4113456, “Atypical Signaling and Functional Desensitization Response of MAS Receptor to Peptide Ligands” (PLoS ONE, 2014).
Numbering of substitutions follows the chain as printed.

Columns and labels:
[1] = target: T1, MAS (Homo sapiens, UniProt P04201); assay: HTRF IP1 assay, induced myc-tagged WT MAS HEK293 stable cell line; assay type: cell-based
T1 construct: expressed in transfected cells
T1 sequence (P04201 1-325): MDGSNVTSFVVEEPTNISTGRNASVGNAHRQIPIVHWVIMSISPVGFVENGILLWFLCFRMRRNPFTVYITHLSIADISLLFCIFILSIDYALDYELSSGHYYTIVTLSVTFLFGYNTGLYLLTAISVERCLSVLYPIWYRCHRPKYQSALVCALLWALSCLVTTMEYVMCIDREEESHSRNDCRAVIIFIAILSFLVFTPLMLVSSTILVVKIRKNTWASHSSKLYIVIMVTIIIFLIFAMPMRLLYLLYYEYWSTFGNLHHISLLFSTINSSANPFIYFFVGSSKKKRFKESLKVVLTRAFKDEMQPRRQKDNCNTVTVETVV
Description: IP1 levels in the cells were measured using the IP-One Tb kit (Cisbio US, Bedford, MA). For the assay, cells were seeded onto a 384-well low volume white cell culture plate at a density of 25,000 cells/well in 20 µl of induction or complete medium. In the IP1 assays the cell density of 25,000 cells/well was consistently maintained to minimize variability between independent experiments. The cells were maintained in a cell culture incubator for 26–28 h. The cells were then serum starved for 2 h by replacing the medium with 7 µl of serum free DMEM/F-12. During this step, 7 µl of serum free DMEM/F-12 was also added to the wells to which IP1 standards would be subsequently added. […] The cells were then placed in the cell culture incubator for 4 h. Later, 3 µl each of d2-labeled IP1 and anti-IP1 cryptate Tb conjugated antibody diluted in lysis buffer was added sequentially to all the wells and the plate was incubated overnight in the dark at room temperature. Time-resolved ratiometric fluorescence emission measurements at 665 nm and 620 nm were taken after excitation at 343 nm on FlexStation 3 instrument.
For the IP1 assay, a standard curve was generated using the 4-Parameter logistic equation fit of the HTRF readings of IP1 standards using the SoftMax Pro software. The IP1 concentrations in the experiments were extrapolated based on the standard curve parameters. […] For all the assays, the EC50 and IC50 values were estimated by fitting the data to a three parameter dose response using GraphPad Prism software (GraphPad, La Jolla, CA).

[2] = target: T1, MAS; assay: SRF-RE luciferase reporter assay (Gα12-dependent), induced WT MAS stable cell line; assay type: cell-based; conditions: induced cells
Description: The luciferase assay was performed using pGL4 luciferase reporter vectors and Dual-Glo Luciferase Assay System (Promega, Madison, WI). For this assay, the inducible MAS stable cells were initially plated in a 10 cm plate and left overnight in a cell culture incubator. The following day the cells were transfected with 5 µg of pGL4.34 plasmid containing serum response factor response element (SRF-RE)-firefly luciferase reporter gene and 1 µg of pGL4.73 plasmid containing renilla luciferase (as a transfection efficiency control). […] After 8 h of transfection and induction, the cells were seeded onto a 96-well clear bottom black cell culture plate (pre-coated with poly-L-lysine) at a density of 125,000 cells/well in 100 µl of minimal medium (with reduced serum of 0.5%). The plate was maintained in a cell culture incubator for 18–20 h. At this point 50 µl of media in the cells was replaced with 50 µl of serum free media containing ligands at 2x the desired concentration and incubated for an additional 6 h. Finally, the luciferase activity in the cells was measured according the protocol provided by the manufacturer. The luminescence measurements (RLU) in the cells were obtained on FlexStation 3 instrument.
For re-stimulation assays, the data is expressed as the percentage of maximum agonist stimulation to allow for ready comparison between individual experiments. […] In the luciferase assay, the luminescence measurements (RLU) are presented as a ratio of firefly to renilla luciferase activity. For all the assays, the EC50 and IC50 values were estimated by fitting the data to a three parameter dose response using GraphPad Prism software (GraphPad, La Jolla, CA).

[3] = target: T2, MAS I191A mutant (Homo sapiens, UniProt P04201, I191A); assay: Calcium assay, I191A MAS mutant stable cell line; assay type: cell-based
T2 construct: expressed in transfected cells
T2 sequence (P04201 1-325 I191A): T1 sequence (P04201 1-325) with I191A
Description: (§1) The kinetic parameter t1/2 (time taken to reach half of the maximum response) was determined using SoftMax Pro software supplied with the FlexStation 3 instrument (Molecular Devices, Sunnyvale, CA).
(§2) For re-stimulation assays, the data is expressed as the percentage of maximum agonist stimulation to allow for ready comparison between individual experiments. […]

[4] = target: T3, MAS T270A mutant (Homo sapiens, UniProt P04201, T270A); assay: Calcium assay, T270A MAS mutant stable cell line; assay type: cell-based
T3 construct: expressed in transfected cells
T3 sequence (P04201 1-325 T270A): T1 sequence (P04201 1-325) with T270A
Description: as §1, §2

[5] = Solubility of ligand stock in assay buffer; assay type: physicochemical; conditions: 5x ligand stock in D-PBS, at greater than 50 µM
[6] = target: T1, MAS; assay: Calcium re-stimulation and antagonism assays, MAS expressing stable cells; assay type: cell-based
Description: The assay was performed using FLIPR Calcium 5 assay kit (Molecular Devices, Sunnyvale, CA). For calcium measurements, cells at a density of 125,000 cells/well in 100 µl medium were seeded onto a 96-well clear bottom black cell culture plate that was pre-coated with poly-L-lysine. In the calcium assays the cell density of 125,000 cells/well was consistently maintained to minimize variability between independent experiments. The cells were seeded in induction media to induce MAS expression or in complete media for negative controls. The plate was maintained in a cell culture incubator for 26–28 h. The cells were then serum starved for 2 h by replacing the medium with 100 µl of serum free DMEM. In the case of pre-treatment with pan-inhibitor of G protein signaling, BIM-46187, the cells were initially serum starved for 1 h by replacing the medium with 50 µl of serum free DMEM. After 1 h, 50 µl of BIM-46187 was added to the cells to a final concentration of 25 µM and treated for another 1 h. Following serum starvation, 100 µl of calcium sensitive dye along with 2x (2.5 mM final concentration) probenecid (Life Technologies, Grand Island, NY) was added to the cells. During this step, AR-inverse agonist or BIM-46187 was also added at desired concentrations to the calcium dye preparation in case of experiments where cells were pre-treated with these inhibitors. The cells were maintained for one hour in the cell culture incubator. […] The instrument was programmed in FLEX mode to add ligands (50 µl at 5x concentration) to the cells and to monitor the fluorescence before and after adding the ligands. […]
For re-stimulation assays, the data is expressed as the percentage of maximum agonist stimulation to allow for ready comparison between individual experiments. For the IP1 assay, a standard curve was generated using the 4-Parameter logistic equation fit of the HTRF readings of IP1 standards using the SoftMax Pro software. […] In the luciferase assay, the luminescence measurements (RLU) are presented as a ratio of firefly to renilla luciferase activity. […]

SMILES: COc1cc([N+](=O)[O-])ccc1S(=O)(=O)N1CC(CN2CCN(c3ccccn3)CC2)C(c2cccc(F)c2)C1 (centres unmarked) [AR-agonist]
- EC50 ([1]; WT MAS, induced cells): 1300 ± 300 nM
- Fold over WT, EC50 IP1 assay ([1]; WT construct): 1
- EC50 [2]: 500 ± 100 nM
- EC50 [3]: 17600 ± 3800 nM
- t1/2, Calcium assay [3]: 68.3 ± 5.3 s
- EC50, Calcium assay [4]: cbd
- t1/2, Calcium assay [4]: 40.0 ± 1.2 s
- Solubility [5]: solubility issues
- Response to second agonist (NPFF or AR-agonist) after first stimulation with the ligand ([6]; re-stimulation assay, second ligand at 600 s): did not respond

SMILES: C=CCCN1CCC2(CC1)CN(C(=O)c1c(F)cccc1F)c1ccc(Cl)cc12 [AR-inverse]
- IC50 ([1]; WT MAS, induced cells, inhibition of constitutive activity): 700 ± 100 nM
- Fold over WT, IC50 IP1 assay ([1]; WT construct): 1
- IC50 [2]: 400 ± 100 nM
- Inhibition of NPFF calcium response ([6]; first ligand at 25 µM, then NPFF): completely inhibited
- Inhibition of AR-agonist calcium dose-response by pre-treatment ([6]; pre-treatment at 25 µM): complete inhibition
